Each block holds one compound with its values, some of them ahead of it.
How the values were obtained:
male albino mice = test: Allyl alcohol-induced liver injury in mice (SGPT); type: in vivo; conditions: allyl alcohol alone, 50 mg/kg single intraperitoneal dose, 4 hours
Procedure: Influence of vitamin E phosphate/phosphatidylcholine liposomes (see example 1) on Allyl alcohol-induced liver injury was evaluated in male albino mice.

cultured liver cells = test: Reversal of ethanol damage in cultured liver cells (phosphatidylcholine biosynthesis); type: cell-based; conditions: 96 h
Procedure: The use of vitamin E phosphate/phosphatidylcholine to effect reversal of damage from ethanol on liver cells was then studied. The cultured liver cells were incubated with 25 mM or 50 mM ethanol for 96 hours, at which time there is significant reduction in liver cell function (phosphatidylcholine biosynthesis). The effect of adding vitamin E phosphate/phosphatdylcholine after 72 hours was studied, and 24 hours later (96 hours after initial exposure to ethanol) values were obtained.

Liver cells [1] = test: Phosphatidylcholine formation in liver cells dysfunctional due to ethanol exposure; type: cell-based; conditions: cells exposed to ethanol
Procedure: Liver cells which had become dysfunctional due to exposure to ethanol were incubated 24 hours with vitamin E phosphate/phosphatidylcholine liposomes. The pmoles of phosphatidylcholine formed per minute/mg protein was then measured with the following results: […]

[2] = Precipitation in the presence of divalent metal salts; type: physicochemical
Text: Liposomes were made using salts of the vitamin E phosphate and phosphatidylcholine. These salts were protected by liposomes to avoid precipitation in the presence of 2^+ metal ions.

[3] = system: isolated liver cells (1000×g cell fraction); type: cell-based; conditions: phosphatidylcholine 100 μM, vitamin E phosphate 50 μm; for LCLP % control + SEM: in presence of 1 mM iron
Liver cells [4] = test: Incorporation of labeled choline into phosphatidylcholine (PC biosynthesis) by liver cells with iron; type: cell-based
Text: The study of effects on liver cells was also considered based on evaluation of effect on increase in the incorporation of labeled choline into phosphatidylcholine (phosphatidylcholine biosynthesis) by liver cells. Vitamin E phosphate/phosphatidylcholine produced greater beneficial effects than either vitamin E phosphate or phosphatidylcholine. [table]

[5] = in presence of 1 mM iron, phosphatidylcholine 100 μM, vitamin E phosphate 50 μm

Compound: C=CCO [Allyl alcohol]
- SGPT % of control ± SEM (male albino mice): 330 ± 15 % of control

- pmoles of phosphatidylcholine formed per minute/mg protein (Liver cells [1]): 25 pmoles per minute/mg protein
- pmoles of phosphatidylcholine formed per minute/mg protein (Liver cells [1]; then incubated 24 hours in water): 27 pmoles per minute/mg protein
Compound: CCO [ETOH, ethanol]
- phosphatidylcholine biosynthesis % control ± SEM (cultured liver cells; 25 mM ethanol alone): 38 ± 2 % control
- phosphatidylcholine biosynthesis % control ± SEM (cultured liver cells; 50 mM ethanol alone): 22 ± 1 % control

- behaviour in the presence of divalent metal salts [2]: precipitated
Compound: Cc1c(C)c2c(c(C)c1OP(=O)(O)O)CCC(C)(CCCC(C)CCCC(C)CCCC(C)C)O2 (stereo not shown) [VEP, vitamin E phosphate]
- LCLP % control + SEM [3]: 167 ± 3 % control
- iron-dependent lipid peroxidation in isolated liver cells (result in words) [3]: significantly reduced
- PC biosynthesis % control + SEM (Liver cells [4]; [5]): 145 ± 4 % control

Compound: [Fe] [iron]
- PC biosynthesis % control + SEM (Liver cells [4]; 1 mM iron alone): 254 ± 9 % control

Compound: phosphatidylcholine [PC]
- LCLP % control + SEM [3]: 281 ± 4 % control
- iron-dependent lipid peroxidation in isolated liver cells (result in words) [3]: significantly reduced
- PC biosynthesis % control + SEM (Liver cells [4]; [5]): 167 ± 4 % control

— patent publication US20050181021A1, “Vitamin E phosphate/phosphatidycholine liposomes to protect from or ameliorate cell damage” (priority 1992, published 2005)
